The record followed here is patent publication US5580542A, “Method of testing for nephritis” (Kureha Kagaku Kogyo K.K., priority 1993, dated 1996).

“And” between values parts separate entries of the source, which are not always exact repeats. Equal entries are not always repeated.

Series [1] can be described thus: Test 2: urinal AcPAH/PAH ratio after Na-PAH in renal arterial ligature rats. The series is classed as in vivo, Sprague-Dawley male rats. To be noted: 40 mg Na-PAH single shot jugular vein, 24 h urine; for urinal AcPAH/PAH ratio, individual rats: day 37 after operation. Here is the method: In this test, an investigation was conducted about the relationship, if any, between the degree of ligature of the renal artery, which serves as an index for the degree of progress of the pathema of a kidney disease, and the concentration ratio of p-acetyl-aminohippuric acid (AcPAH) to p-aminohippuric acid (PAH) in urine.
Depending on whether the renal arterial carina ligating method was applied and if so, how tight the ligating method as applied, the rats were divided into three groups, each consisting of three of the rats, that is, a sham-operation group (i.e., control), a 1/2 renal arterial ligature group (only one kidney was functioning) and a 5/6 renal arterial ligature group. On the 37th day after the operation, an aqueous solution of 40 mg of sodium p-aminohippurate (Na-PAH) in 200 μl of distilled water was administered as a single shot to the jugular vein of each rat under anesthesia with ethyl ether. The rat was then immediately placed in metabolism test cage, and urine was collected over 24 hours. The concentrations of AcPAH and PAH in urine were analyzed by high-performanceliquid chromatography in a manner to be described subsequently herein, whereby the ratio of AcPAH to PAH (AcPAH/PAH) was determined.
Namely, 150 μl of methanol, which contained 1 μg of vanillic acid as an internal standard substance, were added to 50 μl of fivefold dilute urine. After the resulting mixture was stirred and centrifuged, the supernatant was collected and was subjected to filtration by centrifugation. By high-performance liquid chromatography, 10 μl of the supernant so obtained were quantitatively analyzed under the following analysis conditions:
Column: "Unisil Pack 250B" (trade name, product of GL Science Inc.)
Mobile phase: water/acetic acid/acetonitrile=93.5/0.5/6 (pH 3, approximately)
Column oven temperature: 40° C.

A short description of series [2]: Test 3: time-dependent stability of urinal AcPAH/PAH ratio after Na-PAH. The format is in vivo, Sprague-Dawley male rats. To be noted: 40 mg Na-PAH single shot jugular vein, 24 h urine, test repeated 7 times on different days. Here is the method: In this test, an investigation was conducted about the time-dependent stability of test results which were obtained using an acetyltransferase activity measuring agent according to the present invention.
An aqueous solution of 40 mg of sodium p-aminohippurate (Na-PAH) in 200 μl of distilled water was administered as a single shot to the jugular vein of each rat under anesthesia with ethyl ether. The rat was then immediately placed in metabolism test cage, and urine was collected over 24 hours. The concentrations of AcPAH and PAH in urine were analyzed as in Test 2, whereby the AcPAH/PAH ratio was determined. The above test was repeated 7 times on different days so that its average value, standard deviation (S.D.) and coefficient of variations (C.V.) were determined.

Series [3] is described as follows: Test 4: concentrations of PAH and AcPAH in blood after Na-PAH. The format is in vivo, Sprague-Dawley male rats. To be noted: 40 mg Na-PAH single shot jugular vein; serum at 30, 60, 90, 120 minutes. Here is the method:
In the test, the rate of secretion of an acetyltransferase activity measuring agent according to this invention into urine was tested.
An aqueous solution of 40 mg of sodium p-aminohippurate (Na-PAH) in 200 μl of distilled water was administered as a single shot to the jugular vein of each rat under anesthesia with ethyl ether. Upon elapsed time of 30 minutes, 60 minutes, 90 minutes and 120 minutes, the concentrations of PAH and AcPAH in blood were measured by high-performance liquid chromatography. Serum was used in an amount of 50 μl each time. The pretreatment method and analysis conditions were the same as in Test 2.

Another series relates to A7r5. Briefly: Test 1: acetyltransferase activity, conversion of p-aminobenzoic acid to p-acetamidobenzoic acid in culture (GC-MS). Conditions: A7r5 (fetal thoracic aortic smooth muscle); culture medium after 2 to 3 days. The format is cell-based, rat. Here is the method: (§1) In this test, the activity of acetyltransferase was evaluated by an in-vitro experiment with respect to p-aminobenzoic acid.
(§2) The left and right kidneys of 7 weeks-old Sprague-Dawley female rats were excised. After the renal cortices were shredded, mesangial cells were prepared by the Sieving's method. For the sake of comparison, "A7r5" (trade name, derived from fetal thoracic aortic smooth muscle), "Clone 9" (trade name. derived from liver), "H9 c2 (2-1)" (trade name, derived from cardiorhabdium), "IEC-18" (trade name, derived from the small intestine) and "NRK-52E" (trade name, derived from epithelial cells of renal tubule), all products of Flow Corp., U.S.A., were used as cells derived from rats.
(§3) Using as a culture medium "RPMI-1640" (trade name; product of Flow Corp.; U.S.A.) added with fetal bovine serum (product of GIBCO Corp.) whose concentration was finally 10% in the medium, those cells were cultured in a 5% CO2 incubator. Since the p-amionbenzoic acid contained in RPMI-1640 was converted to p-acetamidobenzoic acid by the above culture, detection was conducted with respect to the p-acetamidobenzoic acid so converted.
(§4) Namely, 2 ml of each culture medium after the lapse of 2 to 3 days since its culture were subjected to centrifugal ultrafiltration to eliminate proteins. One ml of the filtrate was added with 30 μl of 1N hydrochloric acid to adjust the pH to pH 1. Added next were 10 μg of p-pentylbenzoic acid, as an internal standard, and 0.5 g NaCl. The resulting mixture was shaken three times together with 3 ml portions of ethyl acetate to conduct liquid/liquid extraction of the organic acid component. After the extract was dried under a nitrogen gas stream, 40 μl of N,O-bis(trimethylsilyl)trifluoroacetamide and 10 μl of trimethylchlorosilane were added. The resulting mixture was stirred at 60° C. for 1 hour so that the organic acid component was trimethylsilylated. The trimethylsilylated organic acid component was then detected by gas chromatography mass spectrometry. The activity of acetyltransferase was evaluated by the relative height of a peak corresponding to p-acetamidobenzoic acid. The following evaluation standard was employed:-: smaller than 50,000,+: 50,000 or greater but smaller than 500,000, ++: 500,000 or greater, all in terms of abundance.

In another series the test system is Clone 9. The description is as above. Conditions: Clone 9 (liver); culture medium after 2 to 3 days. The series is classed as cell-based, rat. Here is the method: as §1, §2, §3, §4
A further series has as its system H9c2(2-1). The series is described as above. The series is classed as cell-based, rat. To be noted: H9c2(2-1) (cardiorhabdium); culture medium after 2 to 3 days. Here is the method:
as §1, §2, §3, §4

For the next series, the system named is IEC-18. The description is as above. The format is cell-based, rat. To be noted: IEC-18 (small intestine); culture medium after 2 to 3 days. Here is the method: as §1, §2, §3, §4
Another series has as its system Mesangial cells. Described as above. The format is cell-based, rat. Here is the method: as §1, §2, §3, §4
The subject of another series is NRK-52E. The description is as above. The format is cell-based, rat. To be noted: NRK-52E (epithelial cells of renal tubule); culture medium after 2 to 3 days. Here is the method: as §1, §2, §3, §4
The mark [4] stands for this setting: 1/2 Renal arterial ligature group (n = 3).
Setting [5] is: 5/6 Renal arterial ligature group (n = 3).

On to `Nc1ccc(C(=O)NCC(=O)[O-])cc1.[Na+]`, for which the “urinal AcPAH/PAH ratio, Ave.” value in [1] (setting [4]) is given as 0.146; in series [1] (setting [5]) it was 0.250; in series [1] (Sham-operation group (n = 3)), 0.125. The “urinal AcPAH/PAH ratio, individual rats” value is 0.144 and 0.153 and 0.141 in series [1] (setting [4]); 0.236 and 0.242 and 0.272 in [1] (setting [5]); 0.132 and 0.121 and 0.123 in [1] (Sham-operation group (n = 3)). In addition, the figures for the “Urinal AcPAH/PAH, Ave.” value in [2] (Rat #1), in series [2] (Rat #2) and in series [2] (Rat #3) were 0.125, 0.100 and 0.131, respectively.
For the compound `CC(=O)Nc1ccc(C(=O)NCC(=O)O)cc1` [AcPAH, p-acetyl-aminohippuric acid], the “concentration of metabolite AcPAH in blood versus time (FIG. 2)” value in series [3] is on record as “becomes low in concentration in 120 minutes after the administration”.
As for `Nc1ccc(C(=O)NCC(=O)O)cc1` [PAH, p-aminohippuric acid], in series [3], the “elimination of PAH from blood (concentration in blood versus time, FIG. 1)” value is “substantially eliminated from blood in 120 minutes after the administration”.
As for `Nc1ccc(C(=O)O)cc1` [p-aminobenzoic acid], the “Evaluation results: activity of acetyltransferase by relative height of peak corresponding to p-acetamidobenzoic acid” value with A7r5 is “- (smaller than 50,000)”; in the series with Clone 9, “- (smaller than 50,000)”; in the series on H9c2(2-1), “- (smaller than 50,000)”; in the series with IEC-18, “- (smaller than 50,000)”; with Mesangial cells (Mesangial cells from rat renal cortex, culture medium after 2 to 3 days), “++ (500,000 or greater)”; in the series on NRK-52E, “- (smaller than 50,000)”. Also, the “N-acetyltransferase activity to p-aminobenzoic acid (in words)” value with Mesangial cells (Mesangial cells) is listed as “confirmed to have N-acetyltransferase activity”.
